This is an account of results in patent US11471462B2, “Compositions and methods for detecting and treating diabetes” (THE BROAD INSTITUTE, INC., priority 2016, dated 2022).

One test relates to SLC16A11. Put plainly: Compound treatment, SLC16A11 expression by ddPCR in SNU761 cells. The format is cell-based, human.
Settings: not given
The method, then:
A small number of the compounds that made the strongest positive connections to the SLC16A11 gene expression signature were selected and tested. […] Methotrexate was also included, which had been annotated as a dihydrofolate reductase inhibitor. SNU761 cells (derived from a human hepatocellular carcinoma) and NCIH716 cells (derived from a human cecum adenocarcinoma), which both express SLC16A11, were treated with the compounds. The same compound concentrations and treatment times were used as in the LINCS dataset experiments. […] For normalization, a different housekeeper gene, HPRT1, was used and obtained similar results with the mTOR inhibitors (FIGS. 14A and 14B).
From the total list of compounds, 59 readily available compounds were selected from the 79 compounds with the largest connectivity scores to the query signature and 20 middle compounds with connectivity scores centered on 0 (FIG. 15A) and then treated SNU761 cells at the same doses and treatment times as were used in the LINCS dataset. It was expected that the top compounds would be enriched for compounds that increased SLC16A11 expression. […] The results were aligned with the expectations (FIG. 15B). Hierarchical clustering of the SLC16 expression profiles generated by the compound treatments are shown by the heat map in FIG. 15C.
SNU761 (human hepatocellular carcinoma) and NCIH716 (human cecum adenocarcinoma) were cultured in RPMI Medium 1640 supplemented with 10% Fetal Bovine Serum (FBS), 100 μg/ml Streptomycin and 100 U/ml Penicillin. Cells were grown in a humidified CO2 incubator, at 37° C.
For the unbiased approach taken to investigate the compounds that connected to the SLC16A11 gene expression signature, compounds were obtained from compound management at the Broad Institute.
SNU761 and NCIH716 cells were plated into 96 well plates at a density of 20,000 cells per well. Hepatocytes were plated into collagen coated 96 well plates (Corning, 354408) at a density of 50,000 cells per well. After 24 hours, cells were treated with compounds at a final concentration of 10 μM or vehicle control for the appropriate amount of time.
At the time of collection, cells in 96 well plates were lysed by directly adding 50 μL of RLT buffer (Qiagen). 75 μL of AMPure XP beads, diluted by a factor of 5 in polyethylene glycol, were then added to bind nucleic acids. One wash with polyethylene glycol was then performed. DNase treatment (Qiagen) was carried out according to the manufacturer's protocol in a final volume of 50 μL. 100 μL of polyethylene glycol was added after the DNase treatment to crowd nucleic acids back onto the beads. Two washes with 80% ethanol were performed and residual ethanol was removed. RNA was then eluted in water.
RNA was DNase treated and converted into cDNA using the High-Capacity RNA-to-cDNA kit (Thermo Fisher Scientific). The following FAM-labeled TaqMan Real-Time PCR assays (Thermo Fisher Scientific) were used to quantify gene expression: SLC16A11 (Hs00601062_g1), SLC16A13 (Hs00416832_m1), SLC16A1 (Hs01560299_m1). The VIC-labeled TaqMan Real-Time assays TBP (Hs00427620_m1) or HPRT1 (Hs02800695_m1) were used for normalization. Droplets were generated and analyzed using a QX200 Droplet Generator and Reader system (BioRad). Data was extracted using QuantaSoft (BioRad) and analyzed using Microsoft Excel.
Regarding `N#CC(=C(/N)Sc1ccccc1N)/C(C#N)=C(\N)Sc1ccccc1N` [U0126], the “avg_fc (SLC16A11 expression, compound treated vs DMSO treated cells)” value amounted to 1.885.

Staying with this test, now noted: SNU761 cells; same doses and treatment times as in the LINCS dataset.
Turning to `Cc1cn(-c2cc(C(=O)Nc3ccc(C)c(NC(=O)c4ccno4)c3)cc(C(F)(F)F)c2)cn1` [ALW-II-38-3], the “avg_fc (SLC16A11 expression, compound treated vs DMSO treated cells)” value came out at 0.9734.

In the case of `O=C1NC(=O)/C(=C/c2ccc3c(c2)OC(F)(F)O3)S1` [AS-604850], the “avg_fc (SLC16A11 expression, compound treated vs DMSO treated cells)” value is listed as 1.009. In the case of `O=C1NC(=O)/C(=C\c2ccc3nccnc3c2)S1` [AS-605240], the “avg_fc (SLC16A11 expression, compound treated vs DMSO treated cells)” value is 0.7908. For the molecule `O=C(NC[C@H](O)CO)c1ccncc1Nc1ccc(I)cc1F` [AS-703026], the “avg_fc (SLC16A11 expression, compound treated vs DMSO treated cells)” value is on record as 1.68.

On to `Cc1cc([C@@H](C)Nc2ccccc2C(=O)O)c2nc(N3CCOCC3)cc(=O)n2c1` [AZD-6482], for which the “avg_fc (SLC16A11 expression, compound treated vs DMSO treated cells)” value was found to be 2.176. For `NC(=O)Nc1cc(-c2cccc(F)c2)sc1C(=O)N[C@H]1CCCNC1` [AZD-7762, 3-[(aminocarbonyl)amino]-5-(3-fluorophenyl)-N-(3S)-3-piperidinyl-2-thiophenecarboxamide, reference compound], the “avg_fc (SLC16A11 expression, compound treated vs DMSO treated cells)” value came to 4.924. Turning to `OC1CCC(Nc2ncc3nc(Nc4c(F)cc(F)cc4F)n([C@@H]4CCOC4)c3n2)CC1` (some centres unmarked) [CG-930], the “avg_fc (SLC16A11 expression, compound treated vs DMSO treated cells)” value turned out to be 1.337.

Take `COCC(=O)NC/C=C/c1ccc2ncnc(Nc3ccc(Oc4ccc(C)nc4)c(C)c3)c2c1` [CP-724714]: the “avg_fc (SLC16A11 expression, compound treated vs DMSO treated cells)” value worked out at 1.37. For the molecule `C[C@H](NC(=O)Cc1cc(F)cc(F)c1)C(=O)N[C@H](C(=O)OC(C)(C)C)c1ccccc1` [DAPT-GSI-IX], the “avg_fc (SLC16A11 expression, compound treated vs DMSO treated cells)” value is recorded as 1.286.

`Cc1nc2c(c(=O)[nH]1)CSCC2` [DR-2313]: the “avg_fc (SLC16A11 expression, compound treated vs DMSO treated cells)” value came out at 1.127. With `Cc1cccc(CCN2CCC(C(=O)c3ccc(NS(C)(=O)=O)cc3)CC2)n1` [E-4031], the “avg_fc (SLC16A11 expression, compound treated vs DMSO treated cells)” value is 0.9411. For `Nc1[nH]nc2nnc(-c3c(-c4ccccc4)nn4ccccc34)cc12` [FR-180204], the “avg_fc (SLC16A11 expression, compound treated vs DMSO treated cells)” value came to 0.915. As to `CS(=O)(=O)N1CCN(Cc2cc3nc(-c4cccc5[nH]ncc45)nc(N4CCOCC4)c3s2)CC1` [GDC-0941], the “avg_fc (SLC16A11 expression, compound treated vs DMSO treated cells)” value stood at 2.079. Still for that read-out and setting: to `COc1ccc(CNC(=O)/C=C/c2ccc3[nH]cc(CCN(C)C)c3c2)cc1` [GR-46611] belongs 0.6609; to `O=C1NC(=O)/C(=C/c2ccc3nccc(-c4ccncc4)c3c2)S1` [GSK-1059615], 1.25. For `c1ccc2c(CCNc3ccc(Nc4ccncc4)cc3)c[nH]c2c1` [JNJ-26854165], the “avg_fc (SLC16A11 expression, compound treated vs DMSO treated cells)” value is recorded as 0.5328.

As to `O=C(NC(COc1ccc2[nH]c(=O)[nH]c2c1)c1ccccc1)c1cccn(Cc2ccc(F)c(F)c2)c1=O` (centres unmarked) [KIN001-244], the “avg_fc (SLC16A11 expression, compound treated vs DMSO treated cells)” value came out at 1.084. `N#CC(=C(N)Sc1ccc(N)cc1)c1ccccc1C(F)(F)F` [MEK1-2-inhibitor]: the “avg_fc (SLC16A11 expression, compound treated vs DMSO treated cells)” value was found to be 1.414. For the molecule `Clc1cncc(N2CCNCC2)n1` [MK-212], the “avg_fc (SLC16A11 expression, compound treated vs DMSO treated cells)” value came to 0.8022. Regarding `NC1(c2ccc(-c3nc4ccn5c(=O)[nH]nc5c4cc3-c3ccccc3)cc2)CCC1` [MK-2206], the “avg_fc (SLC16A11 expression, compound treated vs DMSO treated cells)” value came out at 0.6972. Regarding `O=c1cc(N2CCOCC2)oc2c1ccc1ccccc12` [NU-7026], the “avg_fc (SLC16A11 expression, compound treated vs DMSO treated cells)” value is 1.12. On the same count and under the same terms, to `Cn1c(=O)n(-c2ccc(C(C)(C)C#N)cc2)c2c3cc(-c4cnc5ccccc5c4)ccc3ncc21` [NVP-BEZ235, 2-methyl-2-[4-(3-methyl-2-oxo-8-quinolin-3-ylimidazo[4,5-c]quinolin-1-yl)phenyl]propanenitrile, reference compound] belongs 2.779; to `COc1cccc2cc(-c3nc([C@H]4CC[C@H](C(=O)O)CC4)n4ncnc(N)c34)[nH]c12` [OSI-027, trans-4-[4-amino-5-(7 methoxy-1H-indol-2-yl)imidazo[5,1-f][1,2,4]triazin-7-yl]-cyclohexanecarboxylic acid, reference compound], 3.384. Consider `COc1cccc(-c2cc(=O)c3ccccc3o2)c1N` [PD-98059], for which the “avg_fc (SLC16A11 expression, compound treated vs DMSO treated cells)” value was determined as 0.7929. In the case of `O=C(NOCC1CC1)c1ccc(F)c(F)c1Nc1ccc(I)cc1Cl` [PD-184352], the “avg_fc (SLC16A11 expression, compound treated vs DMSO treated cells)” value is listed as 1.445.

Regarding `O=C(NOC[C@H](O)CO)c1ccc(F)c(F)c1Nc1ccc(I)cc1F` [PD-0325901], the “avg_fc (SLC16A11 expression, compound treated vs DMSO treated cells)” value was found to be 2.181.

For the molecule `Oc1cccc(-c2nc(N3CCOCC3)c3oc4ncccc4c3n2)c1` [PI-103, 3-(6-morpholin-4-yl-8-oxa-3,5,10-triazatricyclo[7.4.0.0^2,7]trideca-1 (9),2(7),3,5,10,12-hexaen-4-yl)phenol, reference compound], the “avg_fc (SLC16A11 expression, compound treated vs DMSO treated cells)” value came out at 2.453. Regarding `Nc1ccc(-c2cccc3c(=O)cc(N4CCOCC4)oc23)cc1` [PI-828], the “avg_fc (SLC16A11 expression, compound treated vs DMSO treated cells)” value is listed as 1.336.

With `COc1ccc2c(c1OC)N=C(NC(=O)c1cccnc1)N1CCN=C21` [PIK-90], the “avg_fc (SLC16A11 expression, compound treated vs DMSO treated cells)” value was 1.487. Consider `Cn1cc(C(=O)C(=O)NC2CN3CCC2CC3)c2ccccc21` (centres unmarked) [RS-56812], for which the “avg_fc (SLC16A11 expression, compound treated vs DMSO treated cells)” value worked out at 0.9914.

In the case of `Cc1[nH]c(/C=C2\C(=O)Nc3ccc(S(=O)(=O)N(C)c4cccc(Cl)c4)cc32)c(C)c1C(=O)N1CCN(C)CC1` [SU-11274], the “avg_fc (SLC16A11 expression, compound treated vs DMSO treated cells)” value is 1.059. On to `COC(=O)c1c(-c2cc(OC)c(OC)c(OC)c2)c2ccnc(OCc3ncccn3)c2c(=O)n1Cc1ccnc(C)c1` [T-0156], for which the “avg_fc (SLC16A11 expression, compound treated vs DMSO treated cells)” value was 0.8378. Consider `Nc1nc(N)c2nc(-c3cccc(O)c3)c(-c3cccc(O)c3)nc2n1` [TG100-115], for which the “avg_fc (SLC16A11 expression, compound treated vs DMSO treated cells)” value came to 1.086. On to `NC(=O)c1ccc(N(C(N)=O)c2c(F)cccc2F)nc1-c1ccc(F)cc1F` [VX-702], for which the “avg_fc (SLC16A11 expression, compound treated vs DMSO treated cells)” value was 0.8683. As for `COC(=O)Nc1ccc(-c2nc(N3CCOCC3)c3cnn(C4CCN(C(=O)OC)CC4)c3n2)cc1` [WYE-354, methyl 4-[6-[4-(methoxycarbonylamino)phenyl]-4-morpholin-4-ylpyrazolo[3,4-d]pyrimidin-1-yl]piperidine-1-carboxylate, reference compound], the “avg_fc (SLC16A11 expression, compound treated vs DMSO treated cells)” value worked out at 3.517. In the case of `CNC(=O)Nc1ccc(-c2nc(N3CC4CCC(C3)O4)c3cnn(C4CCC5(CC4)OCCO5)c3n2)cc1` [WYE-125132], the “avg_fc (SLC16A11 expression, compound treated vs DMSO treated cells)” value is 3.336.

As to `COCCCOc1cc(C[C@@H](C[C@H](N)[C@@H](O)C[C@H](C(=O)NCC(C)(C)C(N)=O)C(C)C)C(C)C)ccc1OC` [aliskiren], the “avg_fc (SLC16A11 expression, compound treated vs DMSO treated cells)” value is recorded as 0.8853. In the case of `NS(=O)(=O)c1cc2c(cc1C(F)(F)F)NC(Cc1ccccc1)NS2(=O)=O` (centres unmarked) [bendroflumethiazide], the “avg_fc (SLC16A11 expression, compound treated vs DMSO treated cells)” value is 0.7917. Same read-out and setting: to `CC(C)COCC(CN(Cc1ccccc1)c1ccccc1)N1CCCC1` (centres unmarked) [bepridil] belongs 0.8545; to `CCCC[C@@H](C=O)NC(=O)[C@H](CC(C)C)NC(=O)OCc1ccccc1` [calpeptin], 1.034; to `CC(C)OC(=O)c1cc2c(OCC(O)CNC(C)(C)C)cccc2[nH]1` (centres unmarked) [carpindolol], 0.8548. Consider `CC1(C)C[C@@H]1C(=O)N/C(=C\CCCCSC[C@H](N)C(=O)O)C(=O)O` [cilastatin], for which the “avg_fc (SLC16A11 expression, compound treated vs DMSO treated cells)” value is 0.9371.

The same test, now with this note: SNU761 cells; unbiased test of 59 top and 20 middle LINCS compounds; LINCS doses and times.
For the molecule `NC(=O)Nc1cc(-c2cccc(F)c2)sc1C(=O)N[C@H]1CCCNC1` [AZD-7762, 3-[(aminocarbonyl)amino]-5-(3-fluorophenyl)-N-(3S)-3-piperidinyl-2-thiophenecarboxamide, reference compound], the “increase in SLC16A11 expression, compound treated compared to DMSO treated cells” value is on record as “about 5 fold”.
